Molecules are shown by their SMILES.

The target of this experiment is T1, AII receptors (Cavia porcellus, UniProt Q9WV26).
T1 construct: from tissue; host or cells: guinea pig adrenal gland, cell surface membrane fraction
T1 sequence (Q9WV26 1-359): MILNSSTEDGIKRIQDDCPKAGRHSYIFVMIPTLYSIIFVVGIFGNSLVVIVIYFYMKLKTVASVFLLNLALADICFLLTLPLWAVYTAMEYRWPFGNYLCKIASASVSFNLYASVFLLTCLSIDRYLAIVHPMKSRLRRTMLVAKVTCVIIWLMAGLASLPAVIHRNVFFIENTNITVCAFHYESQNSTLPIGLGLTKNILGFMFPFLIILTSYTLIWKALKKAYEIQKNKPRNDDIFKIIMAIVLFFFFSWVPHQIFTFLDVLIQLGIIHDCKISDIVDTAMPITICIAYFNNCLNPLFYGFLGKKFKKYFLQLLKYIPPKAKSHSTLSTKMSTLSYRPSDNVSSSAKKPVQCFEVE
The experiment is described as follows: Test A: displacement of radiolabelled AII binding from guinea pig adrenal gland membrane fraction. As to conditions: guinea pig adrenal gland membranes; read-out: IC50 (concentration for 50% displacement of radiolabelled AII binding). On the procedure:
This in vitro procedure involves the incubation of the test compound initially at a concentration of 100 micromolar (or less) in a buffered mixture containing fixed concentrations of radiolabelled AII and a cell surface membrane fraction prepared from a suitable angiotensin target tissue. In this test, the source of cell surface membranes is the guinea pig adrenal gland which is well known to respond to AII. Interaction of the radiolabelled AII with its receptors (assessed as radiolabel bound to the particulate membrane fraction following removal of unbound radiolabel by a rapid filtration procedure such as is standard in such studies) is antagonized by compounds which also bind to the membrane receptor sites and the degree of antagonism (observed in the test as displacement of membrane-bound radioactivity) is determined readily by comparing the receptor-bound radioactivity in the presence of the test compound at the specified test concentration with a control value determined in the absence of the test compound. Using this procedure compounds showing at least 50% displacement of radiolabelled AII binding at a concentration of 10^4 M are retested at lower concentrations to determine their potency. […]

For `CCc1cc2c(ccc(=O)n2Cc2ccc(OC(C(=O)O)c3ccccc3)cc2)c(CC)n1` (stereo not shown) [Example 2], the IC50 is 270 nM.

The values above are taken from patent US5373015A, “Fused pyridine derivatives useful as angiotensin II antagonists” (Imperial Chemical Industries PLC, priority 1991, dated 1994).
